In patent publication US10626115B2, “Fused pyrimidinone and triazinone derivatives containing bridged nitrogen, their process of preparation and their therapeutic uses as antifungal and/or antiparasitic agents” (UNIVERSITE DE NANTES, priority 2015, dated 2020):
Converted amounts (≈) assume the structure as drawn. Where two headings read alike, the source gives them in different places.

Experiments:
[1] = test system: fluconazole-resistant C. albicans strain CAAL111 (efflux pump); experiment: microbe, parasite or virus in culture; assay type: cell-based; conditions: Candida albicans, read-out: MIC values CAAL111
Experimental: (§1) Eight strains of Candida spp. with various azoles-susceptibilities were used: • One fluconazole-susceptible C. albicans strain: CAAL93 • Two fluconazole-resistant C. albicans strains: CAAL111 (efflux pump) and CAAL117 (erg11 mutations+voriconazole-resistant) • five fluconazole-resistant Candida non albicans strains: C. krusei (CAKR7, CAKR8), C. glabrata (CAGL2), C. parapsilosis s.l. (CAPA1, CAPA2).
(§2) Antifungal susceptibility was evaluated with a spectrofluorimetric microdilution method.

[2] = test system: fluconazole-resistant C. krusei (CAKR8); experiment: microbe, parasite or virus in culture; assay type: cell-based; conditions: Pichia kudriavzevii, read-out: MIC values CAKR8
Experimental: as §1, §2

[3] = test system: fluconazole-resistant C. krusei (CAKR7); experiment: microbe, parasite or virus in culture; assay type: cell-based; conditions: Pichia kudriavzevii, read-out: MIC values CAKR7
Experimental: as §1, §2

[4] = test system: fluconazole-resistant C. albicans strain CAAL117 (erg11 mutations+voriconazole-resistant); experiment: microbe, parasite or virus in culture; assay type: cell-based; conditions: for MIC: Candida albicans, read-out: MIC values CAAL117; for fold more active than voriconazole against CAAL117: compared with voriconazole
Experimental: as §1, §2

[5] = test system: fluconazole-resistant C. glabrata (CAGL2); experiment: microbe, parasite or virus in culture; assay type: cell-based; conditions: Nakaseomyces glabratus, read-out: MIC values CAGL2
Experimental: as §1, §2

[6] = test system: A. fumigatus susceptible strain ASFU35A; experiment: Antifungal susceptibility, spectrofluorimetric microdilution, ASFU35A; assay type: cell-based, Aspergillus fumigatus; conditions: for MIC: Aspergillus fumigatus, read-out: MIC values ASFU35A
Experimental: (§3) Eleven strains of A. fumigatus with various itraconazole susceptibility were used: • Five susceptible strains: ASFU7, ASFU35A, ASFU38A, ASFU76 and ASFU78. • Six itraconazole-resistant strains: ASFU77 (erg11 mutation), ASFU13, ASFU17, ASFU19, ASFU20, ASFU23.
(§4) Antifungal susceptibility was evaluated with a spectrofluorimetric microdilution method. MIC was the concentration that was able to inhibit 80% of fluorescence measured in the control wells.

[7] = test system: A. fumigatus itraconazole-resistant strain ASFU17; experiment: Antifungal susceptibility, spectrofluorimetric microdilution, ASFU17; assay type: cell-based, Aspergillus fumigatus; conditions: for MIC: Aspergillus fumigatus, read-out: MIC values ASFU17
Experimental: as §3, §4

[8] = test system: A. fumigatus susceptible strain ASFU7; experiment: Antifungal susceptibility, spectrofluorimetric microdilution, ASFU7; assay type: cell-based, Aspergillus fumigatus; conditions: for MIC: Aspergillus fumigatus, read-out: MIC values ASFU7
Experimental: as §3, §4

[9] = test system: A. fumigatus susceptible strain ASFU38A; experiment: Antifungal susceptibility, spectrofluorimetric microdilution, ASFU38A; assay type: cell-based, Aspergillus fumigatus; conditions: for MIC: Aspergillus fumigatus, read-out: MIC values ASFU38A
Experimental: as §3, §4

[10] = test system: A. fumigatus itraconazole-resistant strain ASFU20; experiment: Antifungal susceptibility, spectrofluorimetric microdilution, ASFU20; assay type: cell-based, Aspergillus fumigatus; conditions: for MIC: Aspergillus fumigatus, read-out: MIC values ASFU20
Experimental: as §3, §4

[11] = test system: A. fumigatus itraconazole-resistant strain ASFU23; experiment: Antifungal susceptibility, spectrofluorimetric microdilution, ASFU23; assay type: cell-based, Aspergillus fumigatus; conditions: for MIC: Aspergillus fumigatus, read-out: MIC values ASFU23
Experimental: as §3, §4

[12] = test system: A. fumigatus itraconazole-resistant strain ASFU13; experiment: Antifungal susceptibility, spectrofluorimetric microdilution, ASFU13; assay type: cell-based, Aspergillus fumigatus; conditions: for MIC: Aspergillus fumigatus, read-out: MIC values ASFU13
Experimental: as §3, §4

[13] = test system: A. fumigatus itraconazole-resistant strain ASFU77 (erg11 mutation); experiment: Antifungal susceptibility, spectrofluorimetric microdilution, ASFU77; assay type: cell-based, Aspergillus fumigatus; conditions: for MIC: Aspergillus fumigatus, read-out: MIC values ASFU77
Experimental: as §3, §4

[14] = test system: A. fumigatus itraconazole-resistant strain ASFU19; experiment: Antifungal susceptibility, spectrofluorimetric microdilution, ASFU19; assay type: cell-based, Aspergillus fumigatus; conditions: for MIC: Aspergillus fumigatus, read-out: MIC values ASFU19
Experimental: as §3, §4

[15] = test system: A. fumigatus susceptible strain ASFU76; experiment: Antifungal susceptibility, spectrofluorimetric microdilution, ASFU76; assay type: cell-based, Aspergillus fumigatus; conditions: for MIC: Aspergillus fumigatus, read-out: MIC values ASFU76
Experimental: as §3, §4

[16] = test system: fluconazole-susceptible C. albicans strain: CAAL93; experiment: Antifungal susceptibility, spectrofluorimetric microdilution, CAAL93; assay type: cell-based; conditions: Candida albicans, read-out: MIC values CAAL93
Experimental: as §1, §2

[17] = test system: A. fumigatus susceptible strain ASFU78; experiment: Antifungal susceptibility, spectrofluorimetric microdilution, ASFU78; assay type: cell-based, Aspergillus fumigatus; conditions: for MIC: Aspergillus fumigatus, read-out: MIC values ASFU78
Experimental: as §3, §4

[18] = test system: fluconazole-resistant C. parapsilosis s.l. (CAPA1); experiment: microbe, parasite or virus in culture; assay type: cell-based; conditions: Lodderomyces parapsilosis, read-out: MIC values CAPA1
Experimental: as §1, §2

[19] = test system: fluconazole-resistant C. parapsilosis s.l. (CAPA2); experiment: microbe, parasite or virus in culture; assay type: cell-based; conditions: Lodderomyces parapsilosis, read-out: MIC values CAPA2
Experimental: as §1, §2

[20] = test system: promastigote stage of a Leishmania mexicana strain; experiment: Anti-Trypanosomatidae activity, promastigote stage, spectrofluorimetric microdilution; assay type: cell-based; conditions: promastigote stage; 50% of control growth; read-out: L. mexicana (IC50 μM)
Experimental: Compounds were evaluated on the promastigote stage of a Leishmania mexicana strain using a spectrofluorimetric microdilution method. Inhibitory concentration 50 (IC50) was the concentration that inhibited 50% of the control growth.

[21] = test system: Aspergillus fumigatus (ASFU7) spores; experiment: Murine invasive aspergillosis; assay type: in vivo; conditions: neutropenic Swiss mice, ASFU7 spores i.v., 10 mg/kg per os once a day for 5 days
Experimental: Transiently neutropenic female Swiss mice were used for experiments on systemic candidiasis and invasive aspergillosis.
Mice were inoculated intravenously with Aspergillus fumigatus (ASFU7) spores.
Treatment was administrated once a day (10 mg/kg per os) for 5 days. […] Fungal burden of the kidney was evaluated in dead animals during the experimentation or in animals sacrificed at the end of the experimentation.

[22] = concentration inhibiting 50% of control fluorescence
[23] = concentration inhibiting 80% of control fluorescence

| Compound | MIC [1] [µg/mL] | MIC [2] [µg/mL] | MIC [3] [µg/mL] | MIC [4] [µg/mL] | MIC [5] [µg/mL] | MIC [6] [µg/mL] | MIC [7] [µg/mL] | MIC [8] [µg/mL] | melting point [°C] | MIC [9] [µg/mL] | MIC [10] [µg/mL] | MIC [11] [µg/mL] | MIC [12] [µg/mL] | MIC [13] [µg/mL] | MIC [14] [µg/mL] | MIC [15] [µg/mL] | MIC [16] [µg/mL] | MIC [17] [µg/mL] | fold more active than voriconazole against CAAL117 [4] [fold] | MIC [18] [µg/mL] | other results |
| --- | --- | --- | --- | --- | --- | --- | --- | --- | --- | --- | --- | --- | --- | --- | --- | --- | --- | --- | --- | --- | --- |
| C[C@@H](n1ncc2cccn2c1=O)[C@](O)(Cn1cncn1)c1ccc(F)cc1F [Compound 44, 3-[(1R,2R)-2-(2,4-Difluorophenyl)-2-hydroxy-1-methyl-3-(1,2,4-triazol-1-yl)propyl]-3H-pyrrolo[1,2-d][1,2,4]triazin-4-one] | 0.48 ± 0.199 (≈ 1.24 µM) | 1.15 (≈ 2.98 µM) | 0.625 ± 0.057 (≈ 1.62 µM) | 0.79 ± 0.092 (≈ 2.04 µM) | 0.099 ± 0.004 (≈ 0.256 µM) | 21.4 ± 10.1 (≈ 55.3 µM) | > 38 | 24.3 ± 9.57 (≈ 62.9 µM) | 131 to 132 | 55.1 ± 9.96 (≈ 143 µM) | 8.04 (≈ 20.8 µM) | 9.54 (≈ 24.7 µM) | 4.06 (≈ 10.5 µM) | 52.8 ± 4.54 (≈ 137 µM) | > 38 | 18.1 ± 10.1 (≈ 46.9 µM) | < 0.001 | 19.7 ± 12.9 (≈ 51 µM) |  |  |  |
| C[C@@H](n1ncc2cc(-c3ccc(Cl)cc3)cn2c1=O)[C@](O)(Cn1cncn1)c1ccc(F)cc1F [Compound 48, 7-(4-Chlorophenyl)-3-[(1R,2R)-2-(2,4-difluorophenyl)-2-hydroxy-1-methyl-3-(1,2,4-triazol-1-yl)propyl]-3H-pyrrolo[1,2-d][1,2,4]triazin-4-one] | 0.018 ± 0.005 (≈ 0.0362 µM) | 0.079 (≈ 0.159 µM) | 0.019 ± 0.001 (≈ 0.0382 µM) | 0.014 ± 0.001 (≈ 0.0282 µM) | 0.061 ± 0.008 (≈ 0.123 µM) | 6.11 ± 0.85 (≈ 12.3 µM) | > 49 | 6.07 ± 0.05 (≈ 12.2 µM) | 204 to 205 | 6.64 ± 1.1 (≈ 13.4 µM) | 2.51 (≈ 5.05 µM) | 2.48 (≈ 4.99 µM) | 2.53 (≈ 5.09 µM) | 9.27 ± 1.05 (≈ 18.7 µM) | > 49 | 6.21 ± 0.18 (≈ 12.5 µM) | < 0.001 | 6.26 ± 0.73 (≈ 12.6 µM) | 100 |  | activity against ITRA-resistant isolate ASFU20, in words [10]: active; activity against ITRA-resistant isolate ASFU23, in words [11]: active; activity against ITRA-resistant isolate ASFU13, in words [12]: active; MIC values against ITRA-resistant isolate carrying M220T mutation (ASFU77), in words [13]: in the micromolar range |
| C[C@@H](n1ncc2cc(-c3ccc([N+](=O)[O-])cc3)cn2c1=O)[C@](O)(Cn1cncn1)c1ccc(F)cc1F [Compound 50, 3-[(1R,2R)-2-(2,4-Difluorophenyl)-2-hydroxy-1-methyl-3-(1,2,4-triazol-1-yl)propyl]-7-(4-nitrophenyl)-3H-pyrrolo[1,2-d][1,2,4]triazin-4-one] | 0.017 ± 0.007 (≈ 0.0335 µM) | 0.039 ± 0.027 (≈ 0.0769 µM) | 0.066 ± 0.009 (≈ 0.13 µM) | 0.018 ± 0.001 (≈ 0.0355 µM) | 0.074 ± 0.038 (≈ 0.146 µM) | 6.59 ± 0.04 (≈ 13 µM) | > 50 | 8.31 ± 0.52 (≈ 16.4 µM) | 130 to 131 | 8.86 (≈ 17.5 µM) | 21.3 (≈ 42 µM) | 43 (≈ 84.7 µM) | 3.08 (≈ 6.07 µM) | > 100 | > 50 | 8.23 ± 2.23 (≈ 16.2 µM) | < 0.001 | 6.4 ± 1.07 (≈ 12.6 µM) | 100 |  |  |
| OC(Cn1cncn1)(Cn1cncn1)c1ccc(F)cc1F [FLC, fluconazole, reference compound] | > 30 | > 10 | > 3 | > 3 | 10.1 ± 0.61 (≈ 33 µM) |  |  |  |  |  |  |  |  |  |  |  |  |  |  | > 30 | MIC [19]: > 30 µg/mL; MIC [16, 22]: 0.036 ± 0.02 µg/mL (≈ 0.118 µM) |
| CCC(C)n1ncn(-c2ccc(N3CCN(c4ccc(OCC5COC(Cn6cncn6)(c6ccc(Cl)cc6Cl)O5)cc4)CC3)cc2)c1=O (centres unmarked) [ITRA, Itraconazole, reference compound] |  |  |  |  |  |  |  |  |  |  |  |  |  |  |  |  |  |  |  |  | MIC values ASFU35A [6, 23]: 0.24 µg/mL (≈ 0.34 µM); MIC values ASFU17 [7, 23]: >7 µg/mL; IC50 [20]: 2.5 ± 0.7 µM; MIC values ASFU7 [8, 23]: 0.42 ± 0.04 µg/mL (≈ 0.595 µM); survival ([21]; 14 days, p<0.01): did survive significantly longer; fungal burden of the kidney ([21]; p<0.05): significantly reduced; MIC values ASFU38A [9, 23]: 0.52 µg/mL (≈ 0.737 µM); MIC values ASFU20 [10, 23]: >7 µg/mL; MIC values ASFU23 [11, 23]: >7 µg/mL; MIC values ASFU13 [12, 23]: >70 µg/mL; MIC values ASFU77 [13, 23]: >100 µg/mL; MIC values ASFU19 [14, 23]: >7 µg/mL; MIC values ASFU76 [15, 23]: 0.50 ± 0.24 µg/mL (≈ 0.709 µM); MIC values ASFU78 [17, 23]: 0.31 µg/mL (≈ 0.439 µM) |
| C[C@@H](c1ncncc1F)[C@](O)(Cn1cncn1)c1ccc(F)cc1F [VOR, voriconazole, reference compound] | 0.458 ± 0.196 (≈ 1.31 µM) | 0.24 ± 0.07 (≈ 0.687 µM) | 0.817 ± 0.007 (≈ 2.34 µM) | 1.1 ± 0.1 (≈ 3.15 µM) | 0.126 ± 0.003 (≈ 0.361 µM) |  | 1.19 (≈ 3.39 µM) |  |  |  | 0.178 (≈ 0.51 µM) | 0.097 (≈ 0.278 µM) | 0.136 (≈ 0.389 µM) | 0.61 ± 0.04 (≈ 1.75 µM) | 1.86 (≈ 5.33 µM) |  |  |  |  | 0.95 ± 0.13 (≈ 2.72 µM) | MIC [19]: 0.36 ± 0.001 µg/mL (≈ 1.03 µM); MIC [6, 23]: 0.6 ± 0.08 µg/mL (≈ 1.72 µM); MIC [8, 23]: 0.15 ± 0.001 µg/mL (≈ 0.429 µM); MIC [9, 23]: 0.75 ± 0.2 µg/mL (≈ 2.15 µM); MIC [15, 23]: 0.64 ± 0.01 µg/mL (≈ 1.83 µM); MIC [16, 22]: 0.005 ± 0.001 µg/mL (≈ 0.0143 µM); MIC [17, 23]: 0.59 ± 0.01 µg/mL (≈ 1.69 µM) |
